Test results published in the supplement of paper PMC11208160.

Assay: recombinant UMI read abundance after kanamycin selection (control-corrected) (log10(CPM+1)); higher = more efficient recombination; extreme values may be limits of the assay; sequences stand for … in AGTGCAGAGAAAATCGGCCAGTTTTCTCTGCCTGCAGTCCGCATGCCGTGGGACCCCTTGGGTTCTAACCTGTTGCCTAGATTTATGCAGCGGACTGCCTTTCTCCCAAAGTGATAAACCGG…AGGTTGGTTTCACT; site = the 11-nt donor
Procedure, shortened: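 Sequencing read counts were converted to CPM, averaged over two replicates and scaled by control-derived factors. Results are given as log10(CPM+1). The reads covered the donor–target junction of recombinant UMIs from a pooled Escherichia coli screen of donor and donor-binding-loop pairs for the IS621 bridge recombinase.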
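Further: IS621 bridge recombinase in Escherichia coli cells against a fixed T5 target plasmid.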

Sequence	recombinant UMI read abundance (log10)
CGAGCGCCATGGACCGGTTTTCCCGGTAATCCGTATTTGTG (site CAAGCGCCTCA)	0.0595
CGAGCGCCATGGACCGGTTTTCCCGGTAATCCGTATTTGTG (site CCAGCGCCTCA)	0.0345
CGAGCGCCATGGACCGGTTTTCCCGGTAATCCGTATTTGTG (site CGAGCGCCTCA)	0.219
CGAGCGCCATGGACCGGTTTTCCCGGTAATCCGTATTTGTG (site CTAGCGCCTCA)	0.0326
CGAGGAACATGGACCGGTTTTCCCGGTAATCCGTATTTGGG (site CGAGGAACTCC)	1.53
CGAGGAACATGGACCGGTTTTCCCGGTAATCCGTATTTGGG (site CGAGGACCTCC)	0.0124
CGAGGAACATGGACCGGTTTTCCCGGTAATCCGTATTTGGG (site CGAGGAGCTCC)	0.376
CGAGGAACATGGACCGGTTTTCCCGGTAATCCGTATTTGGG (site CGAGGATCTCC)	1.59
CGAGGAACATGGACCGGTTTTCCCGGTAATCCGTATTTGTT (site CGAGGAACTAA)	2.78
CGAGGAACATGGACCGGTTTTCCCGGTAATCCGTATTTGTT (site CGCGGAACTAA)	0.0367
CGAGGAACATGGACCGGTTTTCCCGGTAATCCGTATTTGTT (site CGGGGAACTAA)	0.474
CGAGGAACATGGACCGGTTTTCCCGGTAATCCGTATTTGTT (site CGTGGAACTAA)	1.82
CGAGGACCATGGACCGGTTTTCCCGGTAATCCGTATTTGGG (site AGAGGACCTCC)	0.00643
CGAGGACCATGGACCGGTTTTCCCGGTAATCCGTATTTGGG (site CAAGGACCTCC)	0.019
CGAGGACCATGGACCGGTTTTCCCGGTAATCCGTATTTGGG (site CCAGGACCTCC)	0.059
CGAGGACCATGGACCGGTTTTCCCGGTAATCCGTATTTGGG (site CGAAGACCTCC)	0
CGAGGACCATGGACCGGTTTTCCCGGTAATCCGTATTTGGG (site CGACGACCTCC)	0.00414
CGAGGACCATGGACCGGTTTTCCCGGTAATCCGTATTTGGG (site CGAGAACCTCC)	0.0154
CGAGGACCATGGACCGGTTTTCCCGGTAATCCGTATTTGGG (site CGAGCACCTCC)	0
CGAGGACCATGGACCGGTTTTCCCGGTAATCCGTATTTGGG (site CGAGGAACTCC)	0.0189
CGAGGACCATGGACCGGTTTTCCCGGTAATCCGTATTTGGG (site CGAGGACCTAC)	0
CGAGGACCATGGACCGGTTTTCCCGGTAATCCGTATTTGGG (site CGAGGACCTCA)	0.0034
CGAGGACCATGGACCGGTTTTCCCGGTAATCCGTATTTGGG (site CGAGGACCTCC)	0.0104

Sequence	recombinant UMI read abundance (log10)
CGAGGACCATGGACCGGTTTTCCCGGTAATCCGTATTTGGG (site CGAGGACCTCG)	0
CGAGGACCATGGACCGGTTTTCCCGGTAATCCGTATTTGGG (site CGAGGACCTCT)	0.0267
CGAGGACCATGGACCGGTTTTCCCGGTAATCCGTATTTGGG (site CGAGGACCTGC)	0
CGAGGACCATGGACCGGTTTTCCCGGTAATCCGTATTTGGG (site CGAGGACCTTC)	0.00702
CGAGGACCATGGACCGGTTTTCCCGGTAATCCGTATTTGGG (site CGAGGAGCTCC)	0.00291
CGAGGACCATGGACCGGTTTTCCCGGTAATCCGTATTTGGG (site CGAGGATCTCC)	0.156
CGAGGACCATGGACCGGTTTTCCCGGTAATCCGTATTTGGG (site CGAGGCCCTCC)	0.0207
CGAGGACCATGGACCGGTTTTCCCGGTAATCCGTATTTGGG (site CGAGGGCCTCC)	0.0101
CGAGGACCATGGACCGGTTTTCCCGGTAATCCGTATTTGGG (site CGAGGTCCTCC)	0.00323
CGAGGACCATGGACCGGTTTTCCCGGTAATCCGTATTTGGG (site CGAGTACCTCC)	0
CGAGGACCATGGACCGGTTTTCCCGGTAATCCGTATTTGGG (site CGATGACCTCC)	0.0104
CGAGGACCATGGACCGGTTTTCCCGGTAATCCGTATTTGGG (site CGCGGACCTCC)	0
CGAGGACCATGGACCGGTTTTCCCGGTAATCCGTATTTGGG (site CGGGGACCTCC)	0
CGAGGACCATGGACCGGTTTTCCCGGTAATCCGTATTTGGG (site CGTGGACCTCC)	0.0136
CGAGGACCATGGACCGGTTTTCCCGGTAATCCGTATTTGGG (site CTAGGACCTCC)	0.00778
CGAGGACCATGGACCGGTTTTCCCGGTAATCCGTATTTGGG (site GGAGGACCTCC)	0.0223
CGAGGACCATGGACCGGTTTTCCCGGTAATCCGTATTTGGG (site TGAGGACCTCC)	0.02
CGAGGACCATGGACCGGTTTTCCCGGTAATCCGTATTTGGT (site CGAGGACCTAC)	0.0053
CGAGGACCATGGACCGGTTTTCCCGGTAATCCGTATTTGGT (site CGAGGACCTCC)	0.0157
CGAGGACCATGGACCGGTTTTCCCGGTAATCCGTATTTGGT (site CGAGGACCTGC)	0
CGAGGACCATGGACCGGTTTTCCCGGTAATCCGTATTTGGT (site CGAGGACCTTC)	0.0098
CGAGGACCATGGACCGGTTTTCCCGGTAATCCGTATTTGTG (site CGAGGACCTCA)	0.00285
CGAGGACCATGGACCGGTTTTCCCGGTAATCCGTATTTGTG (site CGAGGACCTCC)	0.0189

Sequence	recombinant UMI read abundance (log10)
CGAGGACCATGGACCGGTTTTCCCGGTAATCCGTATTTGTG (site CGAGGACCTCG)	0
CGAGGACCATGGACCGGTTTTCCCGGTAATCCGTATTTGTG (site CGAGGACCTCT)	0.0187
CGAGGAGCATGGACCGGTTTTCCCGGTAATCCGTATTTGGG (site CGAGGAACTCC)	0.567
CGAGGAGCATGGACCGGTTTTCCCGGTAATCCGTATTTGGG (site CGAGGACCTCC)	0.0303
CGAGGAGCATGGACCGGTTTTCCCGGTAATCCGTATTTGGG (site CGAGGAGCTCC)	0.918
CGAGGAGCATGGACCGGTTTTCCCGGTAATCCGTATTTGGG (site CGAGGATCTCC)	0.704
CGAGGTCCATGGACCGGTTTTCCCGGTAATCCGTATTTGGG (site CGAGGACCTCC)	0.0132
CGAGGTCCATGGACCGGTTTTCCCGGTAATCCGTATTTGGG (site CGAGGCCCTCC)	0.0189
CGAGGTCCATGGACCGGTTTTCCCGGTAATCCGTATTTGGG (site CGAGGGCCTCC)	0.0131
CGAGGTCCATGGACCGGTTTTCCCGGTAATCCGTATTTGGG (site CGAGGTCCTCC)	0.0134
CGAGGTGCATGGACCGGTTTTCCCGGTAATCCGTATTTGAT (site CAAGGTGCTAT)	1.84
CGAGGTGCATGGACCGGTTTTCCCGGTAATCCGTATTTGAT (site CCAGGTGCTAT)	1.37
CGAGGTGCATGGACCGGTTTTCCCGGTAATCCGTATTTGAT (site CGAGGTGCTAT)	2.36
CGAGGTGCATGGACCGGTTTTCCCGGTAATCCGTATTTGAT (site CTAGGTGCTAT)	1.6
CGAGTAGCATGGACCGGTTTTCCCGGTAATCCGTATTTGCC (site CGAGTAGCTGG)	1.66
CGAGTATCATGGACCGGTTTTCCCGGTAATCCGTATTTGGC (site CGAGTATCTGC)	3.08
CGAGTATCATGGACCGGTTTTCCCGGTAATCCGTATTTGGC (site CTAGTATCTGT)	2.29
CGAGTCACATGGACCGGTTTTCCCGGTAATCCGTATTTGGG (site CAAGTCACTCC)	0.0136
CGAGTCACATGGACCGGTTTTCCCGGTAATCCGTATTTGGG (site CCAGTCACTCC)	0.0249
CGAGTCACATGGACCGGTTTTCCCGGTAATCCGTATTTGGG (site CGAGTCACTCC)	0.184
CGAGTCACATGGACCGGTTTTCCCGGTAATCCGTATTTGGG (site CTAGTCACTCC)	0.00855
CGAGTGGCATGGACCGGTTTTCCCGGTAATCCGTATTTGAG (site CGAGTGGCTCT)	1.85
